Experimental data: PubChem BioAssay AID2074 (Sanford-Burnham Center for Chemical Genomics, 2009)

Target: Dual specificity protein phosphatase 3 (Homo sapiens) (UniProt P51452)
Assay: VHR phosphatase inhibition, SAR follow up, biochemical fluorescent readout with DiFMUP (AID 2074)
Conditions: recombinant VHR phosphatase, DiFMUP fluorescence

Dual specificity protein phosphatase 3 (Homo sapiens), sequence (P51452 whole entry, looked up): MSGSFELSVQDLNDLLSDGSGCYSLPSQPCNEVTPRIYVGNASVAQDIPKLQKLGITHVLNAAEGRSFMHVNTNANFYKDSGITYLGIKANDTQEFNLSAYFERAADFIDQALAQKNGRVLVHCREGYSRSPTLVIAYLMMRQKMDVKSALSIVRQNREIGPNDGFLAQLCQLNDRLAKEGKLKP

SMILES	IC50 [µM]
O=C1/C(=C/c2cn(-c3ccccc3)nc2-c2ccc(OCc3ccccc3)cc2)SC(=S)N1CCS(=O)(=O)O	0.078
O=C1/C(=C/c2cn(-c3ccccc3)nc2-c2ccc(OCc3ccccc3Cl)cc2)SC(=S)N1CCS(=O)(=O)O	0.071
O=C1/C(=C/c2cn(-c3ccccc3)nc2-c2ccc(OCc3ccc(Cl)cc3)cc2)SC(=S)N1CCS(=O)(=O)O	0.018
O=C1/C(=C/c2cn(-c3ccccc3)nc2-c2ccc(Cl)cc2)SC(=S)N1CCS(=O)(=O)O	1.8
Cc1ccc(-c2nn(-c3ccccc3)cc2/C=C2\SC(=S)N(CCS(=O)(=O)O)C2=O)cc1	3.1
O=C1/C(=C/c2cn(-c3ccccc3)nc2-c2ccc(S(=O)(=O)N3CCOCC3)cc2)SC(=S)N1CCS(=O)(=O)O	2.4
COc1ccc(-c2nn(-c3ccccc3)cc2/C=C2\SC(=S)N(CCS(=O)(=O)O)C2=O)cc1	1.8
